In brackets after ≈: the same amount, converted by molar mass.
How the values were obtained:
Assay type in all cases: functional, cell-based
XF498 = experiment: Cytotoxicity against Homo sapiens (human) XF498 cells after 72 hr by MTT assay; details: XF498, 72 h
HCT-15 = experiment: Cytotoxicity against Homo sapiens (human) HCT15 cells after 72 hr by MTT assay; details: HCT-15, 72 h
A549 = experiment: Cytotoxicity against Homo sapiens (human) A549 cells after 72 hr by MTT assay; details: A549, 72 h
SK-OV-3 = experiment: Cytotoxicity against Homo sapiens (human) SKOV3 cells after 72 hr by MTT assay; details: SK-OV-3, 72 h
SK-MEL-2 = experiment: Cytotoxicity against Homo sapiens (human) SK-MEL-2 cells after 72 hr by MTT assay; details: SK-MEL-2, 72 h

| Structure (SMILES) | IC50 (XF498) | IC50 (HCT-15) | IC50 (A549) | IC50 (SK-OV-3) | IC50 (SK-MEL-2) |
| --- | --- | --- | --- | --- | --- |
| O=C1C(Nc2ccc(Cl)cc2)=CC(=O)c2ncncc21 | 0.01 mg/L (≈ 0.035 µM) | < 0.01 mg/L | 0.02 mg/L (≈ 0.07 µM) | 0.01 mg/L (≈ 0.035 µM) | 0.01 mg/L (≈ 0.035 µM) |
| CCOc1ccc(NC2=CC(=O)c3ncncc3C2=O)cc1 | 0.03 mg/L (≈ 0.102 µM) | 0.02 mg/L (≈ 0.0677 µM) | 0.16 mg/L (≈ 0.542 µM) | 0.02 mg/L (≈ 0.0677 µM) | 0.02 mg/L (≈ 0.0677 µM) |
| O=C1C(Nc2ccc(Cl)cc2)=C(Cl)C(=O)c2ncccc21 | 3.31 mg/L (≈ 10.4 µM) | 0.34 mg/L (≈ 1.07 µM) | 5.03 mg/L (≈ 15.8 µM) | 1.33 mg/L (≈ 4.17 µM) | 1.3 mg/L (≈ 4.07 µM) |
| CCOc1ccc(NC2=C(Cl)C(=O)c3ncncc3C2=O)cc1 | 0.3 mg/L (≈ 0.91 µM) | 0.04 mg/L (≈ 0.121 µM) | 0.33 mg/L (≈ 1 µM) | 0.22 mg/L (≈ 0.667 µM) | 0.08 mg/L (≈ 0.243 µM) |
| O=C1C(Nc2ccc(OC(F)(F)F)cc2)=C(Cl)C(=O)c2ncncc21 | 0.23 mg/L (≈ 0.622 µM) | 0.22 mg/L (≈ 0.595 µM) | 0.37 mg/L (≈ 1 µM) | 0.27 mg/L (≈ 0.73 µM) | 0.29 mg/L (≈ 0.784 µM) |
| O=C1C(Nc2ccc(F)cc2)=CC(=O)c2ncncc21 | 0.04 mg/L (≈ 0.149 µM) | 0.02 mg/L (≈ 0.0743 µM) | 1.08 mg/L (≈ 4.01 µM) | 0.07 mg/L (≈ 0.26 µM) | 0.05 mg/L (≈ 0.186 µM) |
| O=C1C(Nc2ccc(Br)cc2)=C(Cl)C(=O)c2ncccc21 | 2.83 mg/L (≈ 7.78 µM) | 0.34 mg/L (≈ 0.935 µM) | 4.28 mg/L (≈ 11.8 µM) | 0.92 mg/L (≈ 2.53 µM) | 1.26 mg/L (≈ 3.47 µM) |
| Cc1ccc(NC2=C(Cl)C(=O)c3ncccc3C2=O)cc1 | 1.26 mg/L (≈ 4.22 µM) | 0.33 mg/L (≈ 1.1 µM) | 1.14 mg/L (≈ 3.82 µM) | 1.27 mg/L (≈ 4.25 µM) | 0.42 mg/L (≈ 1.41 µM) |
| O=C1C(Nc2ccc(Cl)cc2)=C(Cl)C(=O)c2ncncc21 | 0.4 mg/L (≈ 1.25 µM) | 0.29 mg/L (≈ 0.906 µM) | 0.3 mg/L (≈ 0.937 µM) | 0.31 mg/L (≈ 0.968 µM) | 0.3 mg/L (≈ 0.937 µM) |
| O=C1C(Cl)=C(Nc2ccc(I)cc2)C(=O)c2cnccc21 | 0.04 mg/L (≈ 0.0974 µM) | 0.01 mg/L (≈ 0.0244 µM) | 0.27 mg/L (≈ 0.658 µM) | 0.04 mg/L (≈ 0.0974 µM) | 0.02 mg/L (≈ 0.0487 µM) |
| O=C1C(Cl)=C(Nc2ccc(F)cc2)C(=O)c2cnccc21 | 1.54 mg/L (≈ 5.09 µM) | 0.31 mg/L (≈ 1.02 µM) | 1.27 mg/L (≈ 4.2 µM) | 1.86 mg/L (≈ 6.14 µM) | 1.22 mg/L (≈ 4.03 µM) |
| O=C1C(Nc2ccccc2)=C(Cl)C(=O)c2ncncc21 | 0.28 mg/L (≈ 0.98 µM) | 0.03 mg/L (≈ 0.105 µM) | 0.33 mg/L (≈ 1.16 µM) | 0.19 mg/L (≈ 0.665 µM) | 0.04 mg/L (≈ 0.14 µM) |
| O=C1C(Nc2ccc(F)cc2)=C(Cl)C(=O)c2ncccc21 | 0.36 mg/L (≈ 1.19 µM) | 0.18 mg/L (≈ 0.595 µM) | 1.25 mg/L (≈ 4.13 µM) | 0.5 mg/L (≈ 1.65 µM) | 1.39 mg/L (≈ 4.59 µM) |
| O=C1C(Cl)=C(Nc2ccc(Br)cc2)C(=O)c2cnccc21 | 0.22 mg/L (≈ 0.605 µM) | 0.1 mg/L (≈ 0.275 µM) | 1.96 mg/L (≈ 5.39 µM) | 0.29 mg/L (≈ 0.798 µM) | 0.23 mg/L (≈ 0.633 µM) |
| O=C1C(Cl)=C(Nc2ccc(Cl)cc2)C(=O)c2cnccc21 | 1.28 mg/L (≈ 4.01 µM) | 0.18 mg/L (≈ 0.564 µM) | 1.1 mg/L (≈ 3.45 µM) | 0.97 mg/L (≈ 3.04 µM) | 0.66 mg/L (≈ 2.07 µM) |
| O=C1C(Nc2ccc(F)cc2)=C(Cl)C(=O)c2ncncc21 | 0.19 mg/L (≈ 0.626 µM) | 0.04 mg/L (≈ 0.132 µM) | 0.33 mg/L (≈ 1.09 µM) | 0.27 mg/L (≈ 0.889 µM) | 0.08 mg/L (≈ 0.263 µM) |
| O=C1C(Nc2ccc(I)cc2)=CC(=O)c2ncncc21 | 0.04 mg/L (≈ 0.106 µM) | 0.01 mg/L (≈ 0.0265 µM) | 0.27 mg/L (≈ 0.716 µM) | 0.04 mg/L (≈ 0.106 µM) | 0.02 mg/L (≈ 0.053 µM) |
| O=C1C(Nc2ccc(I)cc2)=C(Cl)C(=O)c2ncccc21 | 3.61 mg/L (≈ 8.79 µM) | 1.27 mg/L (≈ 3.09 µM) | 4.29 mg/L (≈ 10.4 µM) | 1.62 mg/L (≈ 3.95 µM) | 3.3 mg/L (≈ 8.04 µM) |
| O=C1C(Nc2ccc(I)cc2)=C(Cl)C(=O)c2ncncc21 | 1.33 mg/L (≈ 3.23 µM) | 0.28 mg/L (≈ 0.68 µM) | 1.51 mg/L (≈ 3.67 µM) | 0.27 mg/L (≈ 0.656 µM) | 0.3 mg/L (≈ 0.729 µM) |
| O=C1C(Nc2ccc(Br)cc2)=CC(=O)c2ncncc21 | 0.03 mg/L (≈ 0.0909 µM) | 0.01 mg/L (≈ 0.0303 µM) | 0.09 mg/L (≈ 0.273 µM) | 0.02 mg/L (≈ 0.0606 µM) | 0.02 mg/L (≈ 0.0606 µM) |
| O=C1C(Nc2ccccc2)=CC(=O)c2ncncc21 | 0.01 mg/L (≈ 0.0398 µM) | 0.01 mg/L (≈ 0.0398 µM) | 0.02 mg/L (≈ 0.0796 µM) | < 0.01 mg/L | 0.01 mg/L (≈ 0.0398 µM) |
| O=C1C(Nc2ccccc2)=C(Cl)C(=O)c2ncccc21 | 1.33 mg/L (≈ 4.67 µM) | 0.74 mg/L (≈ 2.6 µM) | 2.3 mg/L (≈ 8.08 µM) | 1.34 mg/L (≈ 4.71 µM) | 1.42 mg/L (≈ 4.99 µM) |
| Cc1ccc(NC2=CC(=O)c3ncncc3C2=O)cc1 | 0.13 mg/L (≈ 0.49 µM) | 0.01 mg/L (≈ 0.0377 µM) | 0.02 mg/L (≈ 0.0754 µM) | 0.03 mg/L (≈ 0.113 µM) | 0.02 mg/L (≈ 0.0754 µM) |
| O=C1C(Nc2ccc(C(F)(F)F)cc2)=C(Cl)C(=O)c2ncncc21 | 0.29 mg/L (≈ 0.82 µM) | 0.03 mg/L (≈ 0.0848 µM) | 0.32 mg/L (≈ 0.905 µM) | 0.21 mg/L (≈ 0.594 µM) | 0.06 mg/L (≈ 0.17 µM) |
| N#Cc1ccc(NC2=C(Cl)C(=O)c3ncncc3C2=O)cc1 | 1.68 mg/L (≈ 5.41 µM) | 0.24 mg/L (≈ 0.772 µM) | 1.34 mg/L (≈ 4.31 µM) | 0.31 mg/L (≈ 0.998 µM) | 0.62 mg/L (≈ 2 µM) |
| O=C1C(Nc2ccc([N+](=O)[O-])cc2)=C(Cl)C(=O)c2ncncc21 | 15.4 mg/L (≈ 46.4 µM) | 0.3 mg/L (≈ 0.907 µM) | 2.77 mg/L (≈ 8.38 µM) | 1.28 mg/L (≈ 3.87 µM) | 0.61 mg/L (≈ 1.84 µM) |

Reference: ChEMBL document CHEMBL3046012, “Synthesis and Cytotoxic Activity of 6-(Substituted-Phenyl)Amino-5,8-Quinazolinediones” (Med Chem Res, 2004)
